The subject of experiment [1] is serotonin aptamers. The experiment is described as follows: real-time measurement with one-color optical biosensor system, fiber-tethered signal-off serotonin aptamer switch. Type of experiment: binding. The note with it: specificity of 5-HT signal-off aptamer optical probe towards other molecules. The text has this: In some embodiments, the optical biosensor system was used to measure other molecules, such as dopamine (DA) and serotonin ([…]). The aptamers for DA and 5-TH are converted into aptamer-switches. (See, e.g., Nakatsuka et al., Aptamer-field-effect Transistors Overcome Debye Length Limitations for Small-molecule Sensing, Science 362: 319-324 (2018).) Higher sensitivity and better photostability were achieved through improvements in detector alignment.
To evaluate the performance of the optical biosensor system in a biological matrix, spiked concentration of 5-HT and DA in an artificial cerebrospinal fluid (aCSF) or a cerebrospinal fluid (CSF), and in brain slices mediums were measured using a one-color optical biosensor system.
The optical biosensor system 2400 includes a laser source 2410, an optical beam splitter 2420, and a detector 2430. The optical biosensor system 2400 may include an optional battery for providing power to the laser source 2410 and the detector 2430. […]
Molecular switches (not shown) are attached to the second end 2466 of the optical waveguide 2462. […] When target molecules, such as dopamine or serotonin, bind to the molecular switches, the molecular switches may emit fluorescence light. The fluorescence light may have a second wavelength that is longer than the first wavelength of the excitation light. The emitted fluorescence light may be coupled back into the optical waveguide 2462 through the second end 2466 and be propagated through the optical waveguide 2462 to be emitted from the first end 2464.
The fluorescence light emitted from the […] of the optical waveguide 2462 may be collimated by the lens 2440 and incident on the optical beam splitter 2420. The optical beam splitter 2420 is configured to transmit the fluorescence light. In some embodiments, the optical beam splitter 2420 may be a dichroic beam splitter configured to have a high reflectance value for the first wavelength of the excitation light, and a high transmittance value for the second wavelength of the fluorescence light. […]

The test system of experiment [2] is live brain slices (nucleus accumbens). The experiment is described as follows: optical fiber sensor in live brain slices, endogenous release of serotonin upon MDMA stimulation. It counts as cell-based, mouse. Set-up: dose or concentration left out as unconfirmed. The note with it: following infusion of MDMA for 10 minutes; 532 nm excitation; NAc. The text has this: According to some embodiments, to measure endogenous release of DA and 5-HT upon drug (MDMA) stimulation with the optical biosensor in live brain slices, a rig system and a brain slice recording chamber are installed in a lab with all the necessary components, including: a gravity-perfusion system alimented by peristatic pump, temperature controller, oxygen lines, microscope, camera and micro-stage. It was noted that black curtains covering the entire rig system were necessary to minimize the background and fluctuations from room-light.
Initially, the optical fiber was successfully inserted in a brain slice without compromising or breaking the micron-size tip of the optical fiber. However, due to mechanical contact, the fluorescence signal was mostly lost during the insertion process. Subsequently, the fiber was protected by a capillary tube from mechanical breakage during the transfer processes onto the rig holder and bath. […]
After confirming the sensitivity, robustness, and specificity of the aptamer sensor in the rig system, test measurements were performed with live brain slices. […] After approximately 10 minutes of baseline measurements (aCSF) to determine the stability of the fluorescence signal in the brain environment over time and estimate the photobleaching rate, drug infusion at […] was started for 10 minutes. […]

Experiment [3] concerns serotonin aptamers. Kind of experiment: specificity test of the aptamers: MDMA spiked in control sample in the absence of brain slice (rig bath). The note with it: excess of MDMA (30 μM), no brain slice, oxygenated aCSF 37° C., 3 ml/min. It counts as binding. The procedure: The stability of the fluorescence signal over time is characterized in a bath system (rig) under the appropriate conditions favorable for live brain slice measurements. This includes keeping the temperature of the bath at 37° C., with oxygenated artificial CSF (aCSF) flown in the chamber at a rate of 3 ml/min. A stable fluorescence signal (counts) was observed over tens of minutes under continuous laser excitation, which confirmed the robustness of the aptamers, fluorophores and the surface under such conditions. To test the specificity of the aptamers, an excess of MDMA (30 μM) was spiked in a control sample in the absence of brain slice.

Turning to `NCCc1ccc(O)c(O)c1` [dopamine], the “sensor responses (fluorescence signal)” value with serotonin aptamers [1] is on record as “negligible”.
Regarding `CNC(C)Cc1ccc2c(c1)OCO2` (centres unmarked) [MDMA], the “fluorescence intensity, red channel (Cy5) and green channel (Cy3)” value in experiment [2] is “clear drop in the fluorescence intensity”. The “change in the fluorescence signal” value in the experiment on serotonin aptamers [3] is listed as “Minimal change”.
With `CNC[C@H](O)c1ccc(O)c(O)c1` [epinephrine], the “sensor responses (fluorescence signal)” value in the experiment on serotonin aptamers [1] is recorded as “negligible”.
As for `O=C(O)Cc1c[nH]c2ccc(O)cc12` [5-hydroxyindoleacetic acid], the “sensor responses (fluorescence signal)” value with serotonin aptamers [1] is “negligible”.
